Test results taken from patent publication US12570655B2, “Cysteine covalent modifiers of AKT1 and uses thereof” (Terremoto Biosciences, Inc., priority 2023, dated 2026).

Legend:
[1] = target: T1, AKT1 WT (Homo sapiens, UniProt P31749, DEL120-128/E133D/G130S/INS132HT/S129A); assay: Compound 13/AKT1 WT co-crystallization complex, crystal structure; assay type: binding; details: FIG. 1C
T1 construct: Akt1(DrLink)-WT/E17K were gene synthesized and cloned by Gibson assembly into the pFastBac vector; His8 followed by TEV site (MSHHHHHHHHGSENLYFQS) (N); DrLink (replaced PH-kinase interdomain linker, part of the construct's name); made in house; host or cells: Akt1(DrLink): baculovirus/Sf9; NB41: E. coli Rosetta 2(DE3)pLysS
Target sequence in this assay (P31749 with tags, fused parts or gaps DEL120-128/S129A/G130S/INS132HT/E133D): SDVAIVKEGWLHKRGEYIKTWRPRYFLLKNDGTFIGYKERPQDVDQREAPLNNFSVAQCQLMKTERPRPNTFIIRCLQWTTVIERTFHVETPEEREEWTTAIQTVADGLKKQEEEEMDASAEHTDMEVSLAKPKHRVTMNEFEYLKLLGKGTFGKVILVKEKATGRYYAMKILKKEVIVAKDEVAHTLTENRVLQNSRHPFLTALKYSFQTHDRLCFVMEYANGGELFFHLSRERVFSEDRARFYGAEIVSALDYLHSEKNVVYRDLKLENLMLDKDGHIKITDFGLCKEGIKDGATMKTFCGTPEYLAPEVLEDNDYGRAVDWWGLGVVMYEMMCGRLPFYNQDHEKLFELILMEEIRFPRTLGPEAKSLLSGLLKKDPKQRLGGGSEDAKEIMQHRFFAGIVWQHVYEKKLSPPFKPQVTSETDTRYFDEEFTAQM

[2] = target: T2, AKT E17K (Homo sapiens, UniProt P31749, DEL120-128/E133D/E17K/G130S/INS132HT/S129A); assay: Compound 13/AKT E17K co-crystallization complex, crystal structure; assay type: binding; details: FIG. 2C
T2 construct: Akt1(DrLink)-WT/E17K were gene synthesized and cloned by Gibson assembly into the pFastBac vector; His8 followed by TEV site (MSHHHHHHHHGSENLYFQS) (N); DrLink (replaced PH-kinase interdomain linker, part of the construct's name); made in house; host or cells: Akt1(DrLink): baculovirus/Sf9; NB41: E. coli Rosetta 2(DE3)pLysS
T2 sequence (P31749 with tags, fused parts or gaps E17K/DEL120-128/S129A/G130S/INS132HT/E133D): as the sequence (P31749 with tags, fused parts or gaps DEL120-128/S129A/G130S/INS132HT/E133D) above, with E16K counted along it
T2 sequence (as listed by the source partner): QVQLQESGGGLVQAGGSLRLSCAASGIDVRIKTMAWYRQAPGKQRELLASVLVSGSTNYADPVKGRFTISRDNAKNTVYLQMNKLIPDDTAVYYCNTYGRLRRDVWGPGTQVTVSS

[3] = target: T3, AKT1 E17K (Homo sapiens, UniProt P31749, E17K); assay: Live cell AKT1 E17K target engagement by NanoBRET competitive probe displacement; assay type: cell-based; details: HEK293 cells transfected with kinase-NanoLuciferase fusion, 2 h at 37° C.
T3 construct: expressed in transfected cells; host or cells: HEK293
T3 sequence (P31749 whole entry E17K, the tested form may be a part): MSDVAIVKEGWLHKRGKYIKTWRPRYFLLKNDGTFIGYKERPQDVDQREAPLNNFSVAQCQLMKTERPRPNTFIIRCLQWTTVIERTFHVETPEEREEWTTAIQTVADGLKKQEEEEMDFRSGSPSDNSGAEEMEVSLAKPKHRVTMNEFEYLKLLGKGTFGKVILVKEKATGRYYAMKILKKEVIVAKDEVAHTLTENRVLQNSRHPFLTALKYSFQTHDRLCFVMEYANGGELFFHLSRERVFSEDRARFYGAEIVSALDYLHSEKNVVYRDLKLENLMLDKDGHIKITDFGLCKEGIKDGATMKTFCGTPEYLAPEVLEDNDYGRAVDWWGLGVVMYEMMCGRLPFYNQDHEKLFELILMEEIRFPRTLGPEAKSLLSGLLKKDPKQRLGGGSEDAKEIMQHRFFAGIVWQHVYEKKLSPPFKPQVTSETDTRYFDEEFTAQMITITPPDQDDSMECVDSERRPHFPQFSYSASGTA
Method in brief: (§1)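 Luminescence ratio 600/460 nm served as readout after HEK293 cells bearing transiently expressed kinase–NanoLuciferase fusions were exposed 2 h at 37 °C to test compound alongside an ATP-competitive fluorescent tracer near EC50. Extracellular signal was quenched by a luciferase inhibitor.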

[4] = target: T4, AKT2 (Homo sapiens, UniProt P31751); assay: Live cell AKT2 target engagement by NanoBRET competitive probe displacement; assay type: cell-based; details: HEK293 cells transfected with kinase-NanoLuciferase fusion, 2 h at 37° C.
T4 construct: expressed in transfected cells; host or cells: HEK293
T4 sequence (P31751 whole entry, the tested form may be a part): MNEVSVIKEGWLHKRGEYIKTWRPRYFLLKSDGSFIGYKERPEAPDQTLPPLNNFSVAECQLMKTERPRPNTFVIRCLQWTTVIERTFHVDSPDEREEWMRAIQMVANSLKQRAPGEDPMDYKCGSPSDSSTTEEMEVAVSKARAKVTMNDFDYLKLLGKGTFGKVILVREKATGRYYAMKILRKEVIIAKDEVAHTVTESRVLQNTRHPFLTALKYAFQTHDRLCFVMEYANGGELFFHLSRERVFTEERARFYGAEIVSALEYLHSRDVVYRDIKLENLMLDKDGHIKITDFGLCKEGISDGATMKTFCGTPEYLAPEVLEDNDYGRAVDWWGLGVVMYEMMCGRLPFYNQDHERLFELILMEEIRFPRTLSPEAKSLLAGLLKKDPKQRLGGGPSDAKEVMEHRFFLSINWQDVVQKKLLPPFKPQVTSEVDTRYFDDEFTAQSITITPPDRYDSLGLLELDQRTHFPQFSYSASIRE
Method in brief: as §1

[5] = target: T5, AKT1 WT (Homo sapiens, UniProt P31749); assay: Live cell AKT1 WT target engagement by NanoBRET competitive probe displacement; assay type: cell-based; details: HEK293 cells transfected with kinase-NanoLuciferase fusion, 2 h at 37° C.
T5 construct: expressed in transfected cells; host or cells: HEK293
T5 sequence (P31749 whole entry, the tested form may be a part): as the sequence (P31749 whole entry E17K, the tested form may be a part) above, with K17E counted along it
Method in brief: as §1

[6] = tested on: LAPC4 prostate cancer cells; assay: Antiproliferative effects in LAPC4 cells (CellTiter Glo); assay type: cell-based; details: Homo sapiens, LAPC4, 72 h, LAPC4 cells (AKT1 E17K allele), read-out: LAPC4 proliferation IC50
Method in brief: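 IC50 values reflect 72 h compound treatment of cells plated at 1,000 per well, with CellTiter Glo luminescence as the viability read-out.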

[7] = target: T1, AKT1 WT; assay: Co-crystallization showing covalent complex formation with AKT1 WT; details: AKT1(DrLink)-WT-NB41 complex, electron density
Experimental: (§2) Akt1(DrLink)-NB41 Complex Formation
(§3) NB41 was added to AKT(DrLink)-WT/E17K using a 1.2:1 molar ratio and incubated for 10 minutes at 4° C. Final concentration of 10 mM EDTA was then added to this complex. The complex was purified by gel filtration on Superdex 200 (10/300 GL) column (gel filtration buffer: 20 mM HEPES pH 8.0, 20 mM NaCl, 5 mM DTT). The resulting complex was then concentrated to […] and flash-frozen in liquid nitrogen and stored at −80° C. This complex was then used for crystal formation.
(§4) Crystallization, Data Collection and Structure Determination
(§5) 6 mg/mL AKT1 WT or E17K DrLink-NB41 complex is incubated with 1 mM TMB Compound 13 on ice for 2 hours prior to crystallization trials. Crystals were obtained by the vapor diffusion technique at 20′C after mixing an equal volume of the complex with the well solution containing 17-23% PEG3350, 200 mM Li2SO4, 100 mM Bis Tris Propane pH 6.5-9.0, 10% ethylene glycol. Crystals grew within 3 days. Crystals were cryo protected in mother liquor supplemented with […] and flash cooled in liquid nitrogen for storage and data collection. All diffraction datasets were collected and processed by Helix Biostructures at ESRF beamline TD30B on Sep. 1, 2023. […] The initial structures were determined through molecular replacement with Phaser in CCP4 suite with the structure […] 7APJ as a search model. […]
Target sequence in this assay (P31749 with tags, fused parts or gaps DEL120-128/S129A/G130S/INS132HT/E133D): as the sequence (P31749 with tags, fused parts or gaps DEL120-128/S129A/G130S/INS132HT/E133D) above
Target sequence in this assay (as listed by the source partner): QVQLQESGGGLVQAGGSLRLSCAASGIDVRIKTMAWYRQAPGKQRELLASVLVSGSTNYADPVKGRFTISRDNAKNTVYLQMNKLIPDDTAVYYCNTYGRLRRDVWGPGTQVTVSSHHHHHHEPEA

[8] = target: T6, AKT1 E17K (Homo sapiens, UniProt P31749, DEL120-128/E133D/E17K/G130S/INS132HT/S129A); assay: Co-crystallization showing covalent complex formation with AKT1 E17K; details: AKT1(DrLink)-E17K-NB41 complex, electron density
T6 construct: Akt1(DrLink)-WT/E17K were gene synthesized and cloned by Gibson assembly into the pFastBac vector; His8 followed by TEV site (MSHHHHHHHHGSENLYFQS) (N); DrLink (replaced PH-kinase interdomain linker, part of the construct's name); made in house; host or cells: Akt1(DrLink): baculovirus/Sf9; NB41: E. coli Rosetta 2(DE3)pLysS
T6 sequence (P31749 with tags, fused parts or gaps E17K/DEL120-128/S129A/G130S/INS132HT/E133D): as the sequence (P31749 with tags, fused parts or gaps DEL120-128/S129A/G130S/INS132HT/E133D) above, with E16K counted along it
Experimental: as §2, §3, §4, §5

IC50 [3]: 56.1 nM | IC50 [4]: 224 nM | IC50 [5]: 17 nM | IC50 [6]: 144 nM | covalent bond formation in co-crystal structure [7]: covalent bond formation with C296 | covalent bond formation in co-crystal structure [8]: covalent bond formation with C296
SMILES: C=CC(=O)N1CCC(N[C@H]2CCc3cc(-n4c(-c5cccnc5N)nc5ccc(-n6cccn6)nc54)ccc32)CC1 [Example 13, 1-(4-{[(1S)-5-[2-(2-aminopyridin-3-yl)-5-(pyrazol-1-yl)imidazo[4,5-b]pyridin-3-yl]-2,3-dihydro-1H-inden-1-yl]amino}piperidin-1-yl)prop-2-en-1-one]
interaction seen in the co-crystal structure (site of covalent attachment) [1]: covalent bond between C296 cysteine residue of AKT1 WT and Compound 13 | interaction seen in the co-crystal structure (site of covalent attachment) [2]: covalent bond between C296 cysteine residue of AKT E17K and Compound 13
